Data taken from patent publication US6365753B1, “Phthalimides and herbicide containing the same as active component” (Mitsubishi Chemical Corporation, priority 1998, dated 2002).

Key:
Assay type in all cases: in vivo
Brassica juncea [1] = test: Foliar treatment test (1) post-emergence application; settings: foliar treatment post-emergence at 1.0- to 2.0-leaf stage, 10 g/a active ingredient, 21st day from treatment; herbicidal index; further: ranges in brackets are in %
Procedure: (§1) Volcanic ash soil from a field was put in a resin-made pot having an area of 200 cm^2. After fertilization, the seeds of Brassica juncea, Ipomoea purpurea, Echinochloa crus-galli and Alopeculus aequalis were cast on the soil and uniformly covered with the soil.
(§2) Cultivation was continued in a greenhouse, and when the weeds reached the 1.0- to 2.0-leaf stage, a prescribed amount of the emulsifiable concentrate comprising the compound of the invention as an active ingredient which was prepared in Formulation Example 3 as diluted with water was sprayed uniformly to the weeds by means of a small-sized power pressure spray to give 10 g of the active ingredient per are.
(§3) Thereafter, cultivation was further continued in the greenhouse, and the herbicidal effect was examined on the 21st day from the treatment. The results obtained are shown in Table 6 (the compound numbers in Table 6 correspond to those in Tables 1 and 2). The herbicidal effect was evaluated based on the same criteria as in Test Example 1.

Ipomoea purpurea = test: as above; settings: foliar treatment post-emergence at 1.0- to 2.0-leaf stage, 10 g/a active ingredient, 21st day from treatment; herbicidal index; further: ranges in brackets are in %
Procedure: as §1, §2, §3

Echinochloa crus-galli [2] = test: as above; settings: foliar treatment post-emergence at 1.0- to 2.0-leaf stage, 10 g/a active ingredient, 21st day from treatment; herbicidal index
Procedure: as §1, §2, §3

Alopeculus aequalis = test: as above; settings: foliar treatment post-emergence at 1.0- to 2.0-leaf stage, 10 g/a active ingredient, 21st day from treatment; herbicidal index; further: ranges in brackets are in %
Procedure: as §1, §2, §3

wheat = test: Foliar treatment test (3) post emergence application, crop injury; settings: 3.0 to 4.0-leaf stage, 0.125% X-77, 21st day, index
Procedure: (§4) Volcanic ash soil from a field was put in a resin-made pot having an area of 200 cm^2. After fertilization, the seeds of Galim spurium, Brassica juncea, and wheat were cast on the soil and covered with the soil uniformly. Cultivation was continued in a greenhouse until the plants reached to the 3.0 to 4.0-leaf stage.
(§5) The emulsifiable concentrate comprising compound No. 5 of the present invention, comparative compound (B) or comparative compound (C) as an active ingredient which was prepared in accordance with Formulation Example 3 was diluted with water containing 0.125% of a spreading agent X-77 (trade name, Valent USA Co.) so that a spray of 250 L/ha might give a prescribed amount of the active ingredient. The diluted composition was uniformly sprayed to the Galium spurium plant, the Brassica juncea plant, and the wheat plant by means of a small-sized power pressure spray.
(§6) Thereafter, cultivation was continued in the greenhouse, and the herbicidal effect and the injury to the crop were examined on the 21st day from the treatment. The herbicidal effect and the injury to the crop were evaluated on the same criteria as in Test Example 4.

Brassica juncea [3] = test: Foliar treatment test (3) post emergence application; settings: 3.0 to 4.0-leaf stage, 0.125% X-77, 21st day, index
Procedure: as §4, §5, §6

Galium spurium = test: as above; settings: 3.0 to 4.0-leaf stage, 0.125% X-77, 21st day, index
Procedure: as §4, §5, §6

Chenopodium album = test: Soil treatment test pre-emergence application; settings: 10 g/a active ingredient, 28th day from treatment, herbicidal index; further: ranges in brackets are in %
Procedure: (§7) Volcanic ash soil from a field was put in a resin-made pot having an area of 200 cm^2. After fertilization, soil previously mixed uniformly with the seeds of Digitaria ciliaris, Setaria viridis, Chenopodium album and Polygonum lapathifolium was scattered on the soil. The emulsifiable concentrate comprising the compound of the invention as an active ingredient which was obtained in Formulation Example 3 was diluted with water, and a prescribed amount of the diluted composition was sprayed uniformly to the surface of the soil by means of a small-sized power pressure spray to give 10 g of the active ingredient per are.
(§8) Thereafter, cultivation was continued in a greenhouse, and the herbicidal effect was examined on the 28th day from the treatment. The results obtained are shown in Table 5 (the compound numbers in Table 5 correspond to those in Tables 1 and 2). The herbicidal effect was evaluated based on the same criteria as in Test Example 1.

Setaria viridis = test: Soil treatment test pre-emergence application; settings: 10 g/a active ingredient, 28th day from treatment, herbicidal index; further: ranges in brackets are in %
Procedure: as §7, §8

Digitaria ciliaris = test: Soil treatment test pre-emergence application; settings: 10 g/a active ingredient, 28th day from treatment, herbicidal index; further: ranges in brackets are in %
Procedure: as §7, §8

Polygonum lapathifolium = test: Soil treatment test pre-emergence application; settings: 10 g/a active ingredient, 28th day from treatment, herbicidal index; further: ranges in brackets are in %
Procedure: as §7, §8

Scirpus juncoides = test: Submerged treatment test; settings: 10 g/a active ingredient, treated 5th day from sowing, examined on the 2.8th day from treatment, herbicidal index; further: ranges in brackets are in %
Procedure: (§9) Alluvial soil from a paddy field was put in a resin-made pot having an area of 200 cm^2. After fertilization, an adequate amount of water was added, and the soil was puddled and leveled. Seeds of Echinochloa crus-galli, Monochoria vaginalis, Rotala indica and Scirpus juncoides were sowed within a layer 0.5 cm below the surface of the soil. Water was poured onto the soil to keep a water depth of 3.5 cm.
(§10) On the 5th day from the sowing, the emulsifiable concentrate containing the compound of the invention as an active ingredient which was prepared in Formulation Example 3 was diluted with water. A prescribed amount of the diluted composition was dropped to the water so as to give 10 g of the active ingredient per are.
(§11) Cultivation was continued in a greenhouse, and the herbicidal effect was examined on the […] from the treatment. The results obtained are shown in Table 4 (the compound numbers in Table 4 correspond to those in Tables 1 and 2). The herbicidal effect was evaluated in terms of herbicidal index based on Y(%) obtained from equation:
(§12) y=[1−(Weight of weeds above the ground in a treated pot)/(Weight of weeds above the ground in a non-treated pot)]×100 (%)

Echinochloa crus-galli [4] = test: Submerged treatment test; settings: 10 g/a active ingredient, treated 5th day from sowing, examined on the 2.8th day from treatment, herbicidal index; further: ranges in brackets are in %
Procedure: as §9, §10, §11, §12

Rotala indica = test: Submerged treatment test; settings: 10 g/a active ingredient, treated 5th day from sowing, examined on the 2.8th day from treatment, herbicidal index; further: ranges in brackets are in %
Procedure: as §9, §10, §11, §12

Monochoria vaginalis = test: Submerged treatment test; settings: 10 g/a active ingredient, treated 5th day from sowing, examined on the 2.8th day from treatment, herbicidal index; further: ranges in brackets are in %
Procedure: as §9, §10, §11, §12
Wherever Herbicidal Effect Echinochloa crus-galli is given: ranges in brackets are in %.

COC(=O)C(Cl)Cc1cc(N2C(=O)c3ccc(F)cc3C2=O)ccc1Cl (centres unmarked) [Compound 2]
Herbicidal Effect Brassica juncea (Brassica juncea [1]): 5 (91-100) | Herbicidal Effect Ipompoea-purpurea (Ipomoea purpurea): 5 (91-100) | Herbicidal Effect Echinochloa crus-galli (Echinochloa crus-galli [2]): 2 (31-50) | Herbicidal Effect Alopeculus sequalis (Alopeculus aequalis): 1 (6-30)

CCOC(=O)C(Cl)Cc1cc(-n2nc(C)n(C(F)F)c2=O)c(F)cc1Cl (centres unmarked) [Comparative Compound (C), Carfentrazone-ethyl]
Crop Injury Wheat (wheat; 12.5 ga.i./ha): 3 (20-29) | Crop Injury Wheat (wheat; 25.0 ga.i./ha): 4 (30-39) | Crop Injury Wheat (wheat; 50.0 ga.i./ha): 6 (60-69) | Herbicidal Effect Brassica juncea (Brassica juncea [3]; 12.5 ga.i./ha): 9 (90-99) | Herbicidal Effect Brassica juncea (Brassica juncea [3]; 25.0 ga.i./ha): 10 (100) | Herbicidal Effect Brassica juncea (Brassica juncea [3]; 50.0 ga.i./ha): 10 (100) | Herbicidal Effect Galium spurium (Galium spurium; 12.5 ga.i./ha): 10 (100) | Herbicidal Effect Galium spurium (Galium spurium; 25.0 ga.i./ha): 10 (100) | Herbicidal Effect Galium spurium (Galium spurium; 50.0 ga.i./ha): 10 (100)

O=C(O)C(Cl)Cc1cc(N2C(=O)c3ccccc3C2=O)c(F)cc1Cl (centres unmarked) [Compound 3, 2-Chloro-3-(2-chloro-4-fluoro-5-pthalimidophenyl)propionic Acid]
Herbicidal Effect Chenopodium album (Chenopodium album): 5 (91-100) | Herbicidal Effect Setaria viridis (Setaria viridis): 0 (0-5) | Herbicidal Effect Digitaria ciliaris (Digitaria ciliaris): 0 (0-5) | Herbicidal Effect Polygonum lapathifolium (Polygonum lapathifolium): 5 (91-100) | Herbicidal Effect Brassica juncea (Brassica juncea [1]): 5 (91-100) | Herbicidal Effect Ipompoea-purpurea (Ipomoea purpurea): 5 (91-100) | Herbicidal Effect Echinochloa crus-galli (Echinochloa crus-galli [2]): 1 (6-30) | Herbicidal Effect Alopeculus sequalis (Alopeculus aequalis): 1 (6-30)

O=C(OC1CCCC1)C(Cl)Cc1cc(N2C(=O)c3ccccc3C2=O)c(F)cc1Cl (centres unmarked) [Compound 9]
Herbicidal Effect Scirpus juncoides (Scirpus juncoides): 5 (91-100) | Herbicidal Effect Echinochloa crus-galli (Echinochloa crus-galli [4]): 5 (91-100) | Herbicidal Effect Rotala indica (Rotala indica): 5 (91-100) | Herbicidal Effect Monochoria vaginalis (Monochoria vaginalis): 5 (91-100) | Herbicidal Effect Brassica juncea (Brassica juncea [1]): 5 (91-100) | Herbicidal Effect Ipompoea-purpurea (Ipomoea purpurea): 5 (91-100) | Herbicidal Effect Echinochloa crus-galli (Echinochloa crus-galli [2]): 2 (31-50) | Herbicidal Effect Alopeculus sequalis (Alopeculus aequalis): 1 (6-30)

CCCCOC(=O)C(Cl)Cc1cc(N2C(=O)c3ccccc3C2=O)c(F)cc1Cl (centres unmarked) [Compound 8]
Herbicidal Effect Scirpus juncoides (Scirpus juncoides): 5 (91-100) | Herbicidal Effect Echinochloa crus-galli (Echinochloa crus-galli [4]): 5 (91-100) | Herbicidal Effect Rotala indica (Rotala indica): 5 (91-100) | Herbicidal Effect Monochoria vaginalis (Monochoria vaginalis): 5 (91-100) | Herbicidal Effect Brassica juncea (Brassica juncea [1]): 5 (91-100) | Herbicidal Effect Ipompoea-purpurea (Ipomoea purpurea): 5 (91-100) | Herbicidal Effect Echinochloa crus-galli (Echinochloa crus-galli [2]): 1 (6-30) | Herbicidal Effect Alopeculus sequalis (Alopeculus aequalis): 1 (6-30)

COC(=O)C(Cl)Cc1cc(N2C(=O)c3ccccc3C2=O)ccc1Cl (centres unmarked) [Compound 1]
Herbicidal Effect Brassica juncea (Brassica juncea [1]): 5 (91-100) | Herbicidal Effect Ipompoea-purpurea (Ipomoea purpurea): 5 (91-100) | Herbicidal Effect Echinochloa crus-galli (Echinochloa crus-galli [2]): 1 (6-30) | Herbicidal Effect Alopeculus sequalis (Alopeculus aequalis): 1 (6-30)
